# Experimental data taken from PubChem BioAssay (NCI).
#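 Compound exposure: 48 hours, 5 concentrations, 96-well plates. TGI: concentration producing complete growth inhibition.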
# Legend:
# Test in all cases: NCI-60 cell line screen, 48 h
# TK-10 renal = system: TK-10 renal
# RXF 393 renal = system: RXF 393 renal
# OVCAR-8 ovarian = system: OVCAR-8 ovarian
# SR leukemia = system: SR leukemia
# HCT-15 colon = system: HCT-15 colon
# PC-3 prostate = system: PC-3 prostate
# OVCAR-5 ovarian = system: OVCAR-5 ovarian
# 786-0 renal = system: 786-0 renal
# HT29 colon = system: HT29 colon
# HOP-62 NSCLC = system: HOP-62 NSCLC
# SK-MEL-28 melanoma = system: SK-MEL-28 melanoma
# ACHN renal = system: ACHN renal
# HCC-2998 colon = system: HCC-2998 colon
# DU-145 prostate = system: DU-145 prostate
# MOLT-4 leukemia = system: MOLT-4 leukemia
# U251 CNS = system: U251 CNS
# HL-60(TB) leukemia = system: HL-60(TB) leukemia
# MDA-MB-435 = system: MDA-MB-435
# RPMI-8226 leukemia = system: RPMI-8226 leukemia
# K-562 leukemia = system: K-562 leukemia
# M14 melanoma = system: M14 melanoma
# NCI/ADR-RES ovarian = system: NCI/ADR-RES ovarian
# SF-268 CNS = system: SF-268 CNS
# MALME-3M melanoma = system: MALME-3M melanoma
# EKVX NSCLC = system: EKVX NSCLC
# COLO 205 colon = system: COLO 205 colon
# MDA-MB-231 breast = system: MDA-MB-231 breast
# SN12C renal = system: SN12C renal
# UACC-257 melanoma = system: UACC-257 melanoma
# NCI-H226 lung = system: NCI-H226 lung
# LOX IMVI melanoma = system: LOX IMVI melanoma
# NCI-H23 lung = system: NCI-H23 lung
# SK-MEL-5 melanoma = system: SK-MEL-5 melanoma
# CCRF-CEM leukemia = system: CCRF-CEM leukemia
# CAKI-1 renal = system: CAKI-1 renal
# OVCAR-3 ovarian = system: OVCAR-3 ovarian
# SNB-75 CNS = system: SNB-75 CNS
# IGROV1 ovarian = system: IGROV1 ovarian
# KM12 colon = system: KM12 colon
# A549 NSCLC = system: A549 NSCLC
# UO-31 renal = system: UO-31 renal
# SNB-19 CNS = system: SNB-19 CNS
# MDA-N = system: MDA-N
# SW-620 colon = system: SW-620 colon
# SF-295 CNS = system: SF-295 CNS
# MCF7 breast = system: MCF7 breast
# NCI-H522 lung = system: NCI-H522 lung
# HS 578T breast = system: HS 578T breast
# HCT-116 colon = system: HCT-116 colon
# SF-539 CNS = system: SF-539 CNS
# NCI-H460 lung = system: NCI-H460 lung
# UACC-62 melanoma = system: UACC-62 melanoma
# A498 renal = system: A498 renal
# SK-MEL-2 melanoma = system: SK-MEL-2 melanoma
# SK-OV-3 ovarian = system: SK-OV-3 ovarian
# OVCAR-4 ovarian = system: OVCAR-4 ovarian
# HOP-92 NSCLC = system: HOP-92 NSCLC
# BT-549 breast = system: BT-549 breast
# T-47D breast = system: T-47D breast
structure (smiles),measurement,setting,value
O=S(CCc1ccccc1)Nc1ccccc1 (centres undefined),TGI,TK-10 renal,> 100 µM
same,TGI,RXF 393 renal,> 100 µM
same,TGI,OVCAR-8 ovarian,> 100 µM
same,TGI,SR leukemia,> 100 µM
same,TGI,HCT-15 colon,> 100 µM
same,TGI,PC-3 prostate,> 100 µM
same,TGI,OVCAR-5 ovarian,> 100 µM
same,TGI,786-0 renal,> 100 µM
same,TGI,HT29 colon,> 100 µM
same,TGI,HOP-62 NSCLC,> 100 µM
same,TGI,SK-MEL-28 melanoma,> 100 µM
same,TGI,ACHN renal,> 100 µM
same,TGI,HCC-2998 colon,> 100 µM
same,TGI,DU-145 prostate,> 100 µM
same,TGI,MOLT-4 leukemia,> 100 µM
same,TGI,U251 CNS,> 100 µM
same,TGI,HL-60(TB) leukemia,> 100 µM
same,TGI,MDA-MB-435,> 100 µM
same,TGI,RPMI-8226 leukemia,> 100 µM
same,TGI,K-562 leukemia,> 100 µM
same,TGI,M14 melanoma,> 100 µM
same,TGI,NCI/ADR-RES ovarian,> 100 µM
same,TGI,SF-268 CNS,> 100 µM
same,TGI,MALME-3M melanoma,> 100 µM
same,TGI,EKVX NSCLC,> 100 µM
same,TGI,COLO 205 colon,> 100 µM
same,TGI,MDA-MB-231 breast,> 100 µM
same,TGI,SN12C renal,> 100 µM
same,TGI,UACC-257 melanoma,> 100 µM
same,TGI,NCI-H226 lung,> 100 µM
same,TGI,LOX IMVI melanoma,> 100 µM
same,TGI,NCI-H23 lung,> 100 µM
same,TGI,SK-MEL-5 melanoma,> 100 µM
same,TGI,CCRF-CEM leukemia,> 100 µM
same,TGI,CAKI-1 renal,> 100 µM
same,TGI,OVCAR-3 ovarian,> 100 µM
same,TGI,SNB-75 CNS,> 100 µM
same,TGI,IGROV1 ovarian,> 100 µM
same,TGI,KM12 colon,> 100 µM
same,TGI,A549 NSCLC,> 100 µM
same,TGI,UO-31 renal,> 100 µM
same,TGI,SNB-19 CNS,> 100 µM
same,TGI,MDA-N,> 100 µM
same,TGI,SW-620 colon,> 100 µM
same,TGI,SF-295 CNS,> 100 µM
same,TGI,MCF7 breast,> 100 µM
same,TGI,NCI-H522 lung,> 100 µM
same,TGI,HS 578T breast,> 100 µM
same,TGI,HCT-116 colon,> 100 µM
same,TGI,SF-539 CNS,> 100 µM
same,TGI,NCI-H460 lung,> 100 µM
CC(=O)Oc1cc2oc(=O)cc(C)c2cc1OC(C)=O,TGI,TK-10 renal,> 100 µM
same,TGI,OVCAR-8 ovarian,> 100 µM
same,TGI,SR leukemia,> 100 µM
same,TGI,HCT-15 colon,> 100 µM
same,TGI,PC-3 prostate,> 100 µM
same,TGI,OVCAR-5 ovarian,> 100 µM
same,TGI,786-0 renal,> 100 µM
same,TGI,HT29 colon,> 100 µM
same,TGI,UACC-62 melanoma,> 100 µM
same,TGI,HOP-62 NSCLC,> 100 µM
same,TGI,SK-MEL-28 melanoma,> 100 µM
same,TGI,A498 renal,> 100 µM
same,TGI,ACHN renal,> 100 µM
same,TGI,DU-145 prostate,> 100 µM
same,TGI,MOLT-4 leukemia,> 100 µM
same,TGI,U251 CNS,> 100 µM
same,TGI,SK-MEL-2 melanoma,> 100 µM
same,TGI,MDA-MB-435,> 100 µM
same,TGI,RPMI-8226 leukemia,> 100 µM
same,TGI,K-562 leukemia,> 100 µM
same,TGI,M14 melanoma,> 100 µM
same,TGI,NCI/ADR-RES ovarian,> 100 µM
same,TGI,SF-268 CNS,> 100 µM
same,TGI,MALME-3M melanoma,> 100 µM
same,TGI,EKVX NSCLC,> 100 µM
same,TGI,COLO 205 colon,> 100 µM
same,TGI,MDA-MB-231 breast,> 100 µM
same,TGI,SN12C renal,> 100 µM
same,TGI,SK-OV-3 ovarian,> 100 µM
same,TGI,UACC-257 melanoma,> 100 µM
same,TGI,NCI-H226 lung,> 100 µM
same,TGI,LOX IMVI melanoma,> 100 µM
same,TGI,NCI-H23 lung,> 100 µM
same,TGI,SK-MEL-5 melanoma,> 100 µM
same,TGI,CCRF-CEM leukemia,> 100 µM
same,TGI,OVCAR-3 ovarian,> 100 µM
same,TGI,SNB-75 CNS,> 100 µM
same,TGI,IGROV1 ovarian,> 100 µM
same,TGI,KM12 colon,> 100 µM
same,TGI,A549 NSCLC,> 100 µM
same,TGI,UO-31 renal,> 100 µM
same,TGI,SNB-19 CNS,> 100 µM
same,TGI,MDA-N,> 100 µM
same,TGI,SW-620 colon,> 100 µM
same,TGI,SF-295 CNS,> 100 µM
same,TGI,MCF7 breast,> 100 µM
same,TGI,HS 578T breast,> 100 µM
same,TGI,HCT-116 colon,> 100 µM
same,TGI,SF-539 CNS,> 100 µM
same,TGI,OVCAR-4 ovarian,> 100 µM
C=C(C(=O)OC1C(CO)OC(OCC2CC[C@@H]3C[C@]4(OC(=O)C3=C)C(C)=CC(=O)C24)C(O)C1O)[C@@H]1CCC(CO)C2C(=O)C=C(C)[C@@]2(O)C1 (some centres undefined),TGI,TK-10 renal,13.1 µM
same,TGI,RXF 393 renal,4.14 µM
same,TGI,OVCAR-8 ovarian,14.8 µM
same,TGI,SR leukemia,11.6 µM
same,TGI,HCT-15 colon,3.1 µM
same,TGI,PC-3 prostate,6.63 µM
same,TGI,OVCAR-5 ovarian,7.15 µM
same,TGI,786-0 renal,7.85 µM
same,TGI,HT29 colon,6.37 µM
same,TGI,UACC-62 melanoma,3.35 µM
same,TGI,HOP-62 NSCLC,24.9 µM
same,TGI,SK-MEL-28 melanoma,14.8 µM
same,TGI,A498 renal,9.86 µM
same,TGI,ACHN renal,12.3 µM
same,TGI,HOP-92 NSCLC,6.66 µM
same,TGI,HCC-2998 colon,4.29 µM
same,TGI,DU-145 prostate,17.6 µM
same,TGI,MOLT-4 leukemia,8.41 µM
same,TGI,U251 CNS,16 µM
same,TGI,SK-MEL-2 melanoma,8.29 µM
same,TGI,HL-60(TB) leukemia,3.76 µM
same,TGI,MDA-MB-435,5.04 µM
same,TGI,RPMI-8226 leukemia,9.12 µM
same,TGI,K-562 leukemia,31.1 µM
same,TGI,M14 melanoma,4.81 µM
same,TGI,NCI/ADR-RES ovarian,11.2 µM
same,TGI,SF-268 CNS,16.1 µM
same,TGI,MALME-3M melanoma,3.44 µM
same,TGI,EKVX NSCLC,8.61 µM
same,TGI,COLO 205 colon,1.13 µM
same,TGI,MDA-MB-231 breast,3.26 µM
same,TGI,SN12C renal,5.42 µM
same,TGI,SK-OV-3 ovarian,55.9 µM
same,TGI,UACC-257 melanoma,5.17 µM
same,TGI,NCI-H226 lung,20.2 µM
same,TGI,LOX IMVI melanoma,6.32 µM
same,TGI,NCI-H23 lung,5.12 µM
same,TGI,SK-MEL-5 melanoma,2.75 µM
same,TGI,BT-549 breast,3.52 µM
same,TGI,CCRF-CEM leukemia,1.3 µM
same,TGI,CAKI-1 renal,7.93 µM
same,TGI,OVCAR-3 ovarian,14.7 µM
same,TGI,SNB-75 CNS,29 µM
same,TGI,IGROV1 ovarian,12.6 µM
same,TGI,KM12 colon,8.31 µM
same,TGI,A549 NSCLC,18 µM
same,TGI,UO-31 renal,7.98 µM
same,TGI,SNB-19 CNS,31.8 µM
same,TGI,SW-620 colon,13.3 µM
same,TGI,SF-295 CNS,35 µM
same,TGI,MCF7 breast,12.8 µM
same,TGI,NCI-H522 lung,0.783 µM
same,TGI,HS 578T breast,> 53.1 µM
same,TGI,HCT-116 colon,3.07 µM
same,TGI,SF-539 CNS,10.5 µM
same,TGI,T-47D breast,24.3 µM
same,TGI,NCI-H460 lung,13.7 µM
same,TGI,OVCAR-4 ovarian,20.1 µM
